The values that follow come from the supplement of paper PMC10307832.

Assay in all cases: relative viability (nuclei count vs DMSO), 5 days (fraction); higher = more cells survive
Compound in experiment [1]: Cn1nnc2c(C(N)=O)ncn2c1=O [Temozolomide] + O=C(c1cc(Cc2n[nH]c(=O)c3ccccc23)ccc1F)N1CCN(C(=O)C2CC2)CC1 [Olaparib] (partner 8 µM)
In short, it runs like this:
(§1)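 Lung cancer cell lines were pin-tool dosed in 1536-well plates on the day after seeding, with either a lone drug or a fixed anchor-drug dose plus five library-drug doses (not always all listed) in √10 steps. Nuclei were counted on 4× images after 5 days. Relative viability is the ratio of treated-well to vehicle-well nuclei counts, with each value a median of duplicate plates.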

Compound in experiment [2]: Cn1nnc2c(C(N)=O)ncn2c1=O [Temozolomide] + Cc1cc(Nc2cc(N3CCN(C)CC3)nc(Sc3ccc(NC(=O)C4CC4)cc3)n2)n[nH]1 [Tozasertib] (partner 0.1 µM)
In short, it runs like this: as §1

Compound in experiment [3]: C[C@@H](C(=O)N[C@@H](C1CCCCC1)C(=O)N2CCC[C@H]2C(=O)N[C@@H]3[C@@H](CC4=CC=CC=C34)OCC#CC#CCO[C@@H]5CC6=CC=CC=C6[C@@H]5NC(=O)[C@@H]7CCCN7C(=O)[C@H](C8CCCCC8)NC(=O)[C@H](C)NC)NC [AZD5582] + CS(=O)(=O)N1CCN(Cc2cc3nc(-c4cccc5[nH]ncc45)nc(N4CCOCC4)c3s2)CC1 [Pictilisib] (partner 1 µM)
In short, it runs like this: as §1

Compound in experiment [4]: C[C@@H](C(=O)N[C@@H](C1CCCCC1)C(=O)N2CCC[C@H]2C(=O)N[C@@H]3[C@@H](CC4=CC=CC=C34)OCC#CC#CCO[C@@H]5CC6=CC=CC=C6[C@@H]5NC(=O)[C@@H]7CCCN7C(=O)[C@H](C8CCCCC8)NC(=O)[C@H](C)NC)NC [AZD5582] + COc1cc2c(Oc3ccc(NC(=O)C4(C(=O)Nc5ccc(F)cc5)CC4)cc3F)ccnc2cc1OCCCN1CCOCC1 [Foretinib] (partner 0.25 µM)
The procedure, abridged: as §1

Regarding SK-MES-1, the relative viability in experiment [1] (first compound 0.2 µM) amounted to 0.824; in experiment [1] (first compound 0.6325 µM), 0.632; in experiment [1] (first compound 2 µM) it was 0.648; in experiment [1] (first compound 6.325 µM) it was 0.532; in experiment [1] (first compound 20 µM), 0.414; in experiment [2] (first compound 0.2 µM), 1.02. The relative viability in experiment [2] (first compound 0.6325 µM) turned out to be 0.919; in experiment [2] (first compound 2 µM), 0.985; in experiment [2] (first compound 6.325 µM), 0.939; in experiment [2] (first compound 20 µM) it was 0.973; in experiment [3] (first compound 0.001581 µM) it was 0.391; in experiment [3] (first compound 0.005 µM), 0.475. Further, the relative viability was 0.4 in experiment [3] (first compound 0.01581 µM); 0.433 in experiment [3] (first compound 0.05 µM); 0.878 in experiment [4] (first compound 0.001581 µM); 1.29 in experiment [4] (first compound 0.005 µM); 0.967 in experiment [4] (first compound 0.01581 µM); 1.24 in experiment [4] (first compound 0.05 µM).

Take NCI-H838: the relative viability in experiment [1] (first compound 0.2 µM) is 0.785; in experiment [1] (first compound 0.6325 µM) it was 0.776; in experiment [1] (first compound 2 µM) it was 0.818; in experiment [1] (first compound 6.325 µM), 0.719; in experiment [1] (first compound 20 µM) it was 0.687; in experiment [2] (first compound 0.2 µM), 0.267. Moreover, the relative viability in experiment [2] (first compound 0.6325 µM) was found to be 0.286; in experiment [2] (first compound 2 µM), 0.309; in experiment [2] (first compound 6.325 µM) it was 0.264; in experiment [2] (first compound 20 µM), 0.254; in experiment [3] (first compound 0.001581 µM), 0.39; in experiment [3] (first compound 0.005 µM), 0.467. Moreover, the relative viability in experiment [3] (first compound 0.01581 µM) turned out to be 0.362; in experiment [3] (first compound 0.05 µM) it was 0.59; in experiment [4] (first compound 0.001581 µM), 0.985; in experiment [4] (first compound 0.005 µM), 1.19; in experiment [4] (first compound 0.05 µM), 1.06.

As to NCI-H2170, the relative viability in experiment [1] (first compound 0.6325 µM) turned out to be 0.514; in experiment [1] (first compound 2 µM), 0.466; in experiment [1] (first compound 6.325 µM), 0.245; in experiment [1] (first compound 20 µM), 0.137; in experiment [2] (first compound 0.6325 µM) it was 0.75; in experiment [2] (first compound 2 µM), 0.756. Further, the relative viability was 0.668 in experiment [2] (first compound 6.325 µM); 0.405 in experiment [2] (first compound 20 µM); 0.3 in experiment [3] (first compound 0.001581 µM); 0.352 in experiment [3] (first compound 0.005 µM); 0.28 in experiment [3] (first compound 0.01581 µM); 0.319 in experiment [3] (first compound 0.05 µM). For the same cell line, the relative viability in experiment [4] (first compound 0.001581 µM) stood at 1.04; in experiment [4] (first compound 0.005 µM), 1.01; in experiment [4] (first compound 0.01581 µM), 1; in experiment [4] (first compound 0.05 µM), 1.09.

On to HCC-827, for which the relative viability in experiment [1] (first compound 0.2 µM) was 0.749; in experiment [1] (first compound 0.6325 µM), 0.645; in experiment [1] (first compound 2 µM) it was 0.665; in experiment [1] (first compound 6.325 µM), 0.432; in experiment [1] (first compound 20 µM), 0.107; in experiment [2] (first compound 0.2 µM) it was 0.428. Also, the relative viability worked out at 0.436 in experiment [2] (first compound 0.6325 µM); 0.409 in experiment [2] (first compound 2 µM); 0.458 in experiment [2] (first compound 6.325 µM); 0.114 in experiment [2] (first compound 20 µM); 0.995 in experiment [3] (first compound 0.001581 µM); 0.954 in experiment [3] (first compound 0.005 µM). The relative viability in experiment [3] (first compound 0.01581 µM) amounted to 0.979; in experiment [3] (first compound 0.05 µM), 1.06; in experiment [4] (first compound 0.001581 µM) it was 0.936; in experiment [4] (first compound 0.005 µM), 1.06; in experiment [4] (first compound 0.01581 µM) it was 1.04; in experiment [4] (first compound 0.05 µM), 0.999.

Regarding NCI-H1793, the relative viability in experiment [1] (first compound 0.6325 µM) is 0.943; in experiment [1] (first compound 2 µM) it was 1.07; in experiment [1] (first compound 6.325 µM) it was 0.685; in experiment [1] (first compound 20 µM) it was 0.506; in experiment [2] (first compound 0.6325 µM) it was 0.31; in experiment [2] (first compound 2 µM), 0.45. Moreover, the relative viability worked out at 0.325 in experiment [2] (first compound 6.325 µM); 0.301 in experiment [2] (first compound 20 µM); 0.288 in experiment [3] (first compound 0.001581 µM); 0.311 in experiment [3] (first compound 0.005 µM); 0.299 in experiment [3] (first compound 0.01581 µM); 0.397 in experiment [3] (first compound 0.05 µM). For the same cell line, the relative viability was 0.737 in experiment [4] (first compound 0.001581 µM), 0.827 in experiment [4] (first compound 0.005 µM), 0.572 in experiment [4] (first compound 0.01581 µM) and 0.908 in experiment [4] (first compound 0.05 µM).

For NCI-H441, the relative viability in experiment [1] (first compound 0.2 µM) was found to be 0.7; in experiment [1] (first compound 0.6325 µM), 0.569; in experiment [1] (first compound 2 µM) it was 0.603; in experiment [1] (first compound 6.325 µM), 0.527; in experiment [1] (first compound 20 µM), 0.337; in experiment [2] (first compound 0.2 µM), 0.691. The relative viability is 0.775 in experiment [2] (first compound 0.6325 µM); 0.785 in experiment [2] (first compound 2 µM); 0.62 in experiment [2] (first compound 6.325 µM); 0.611 in experiment [2] (first compound 20 µM); 0.419 in experiment [3] (first compound 0.001581 µM); 0.536 in experiment [3] (first compound 0.005 µM). Also, the relative viability in experiment [3] (first compound 0.01581 µM) was 0.405; in experiment [3] (first compound 0.05 µM), 0.47; in experiment [4] (first compound 0.001581 µM), 0.847; in experiment [4] (first compound 0.005 µM), 1.03; in experiment [4] (first compound 0.05 µM) it was 0.883.

With H3255, the relative viability in experiment [1] (first compound 0.6325 µM) worked out at 0.554; in experiment [1] (first compound 2 µM), 0.565; in experiment [1] (first compound 6.325 µM) it was 0.477; in experiment [1] (first compound 20 µM), 0.345; in experiment [2] (first compound 0.6325 µM), 0.534; in experiment [2] (first compound 2 µM), 0.613. Moreover, the relative viability was 0.532 in experiment [2] (first compound 6.325 µM); 0.17 in experiment [2] (first compound 20 µM); 0.472 in experiment [3] (first compound 0.001581 µM); 0.454 in experiment [3] (first compound 0.005 µM); 0.392 in experiment [3] (first compound 0.01581 µM); 0.39 in experiment [3] (first compound 0.05 µM). Also, the relative viability in experiment [4] (first compound 0.001581 µM) amounted to 0.868; in experiment [4] (first compound 0.005 µM) it was 0.796; in experiment [4] (first compound 0.01581 µM), 0.741; in experiment [4] (first compound 0.05 µM) it was 0.772.

Take ABC-1: the relative viability in experiment [1] (first compound 0.2 µM) was found to be 0.921; in experiment [1] (first compound 0.6325 µM), 0.673; in experiment [1] (first compound 2 µM), 1.09; in experiment [1] (first compound 6.325 µM), 0.85; in experiment [1] (first compound 20 µM), 0.696; in experiment [2] (first compound 0.2 µM) it was 0.158. For the same cell line, the relative viability in experiment [2] (first compound 0.6325 µM) came to 0.138; in experiment [2] (first compound 2 µM), 0.196; in experiment [2] (first compound 6.325 µM), 0.164; in experiment [2] (first compound 20 µM), 0.218; in experiment [3] (first compound 0.001581 µM), 0.586; in experiment [3] (first compound 0.005 µM) it was 0.93. Further, the relative viability in experiment [3] (first compound 0.01581 µM) worked out at 0.478; in experiment [3] (first compound 0.05 µM), 0.679; in experiment [4] (first compound 0.001581 µM), 0.875; in experiment [4] (first compound 0.005 µM), 1.11; in experiment [4] (first compound 0.01581 µM) it was 1.05; in experiment [4] (first compound 0.05 µM), 0.852.
